Laboratory results reported in patent US10174029B2, “Pyrimidine-2,4-diamine derivatives for treatment of cancer” (THOMAS HELLEDAYS STIFTELSE FOR MEDICINSK FORSKNING, priority 2012, dated 2019).

Biological target: MTH1 (Homo sapiens, UniProt P36639)
Assay: MTH1 enzymatic assay and IC50 value determination (malachite green)
Format: biochemical
Conditions: MTH1 4.8 nM, dGTP 100 μM, 15 minutes at 22° C.; group: between 2 μM and 10 μM
Summary of the method: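 Malachite green detection of Pi after coupling dGTP hydrolysis to excess E. coli pyrophosphatase; 4.8 nM MTH1, 100 μM dGTP in Tris-acetate buffer with Mg2+ and DTT, 1% DMSO, 15 min at 22 °C. 12-point 1:3 compound series; absorbance at 630 nm; IC50 by four-parameter nonlinear regression.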

Structure (SMILES)	IC50
Cc1ccc(S(=O)(=O)n2cc(-c3cc(NC(C)(C)C)nc(N)n3)c3ccccc32)cc1 [Example 161, 4-N-tert-butyl-6-[1-(4-methylbenzenesulfonyl)-1H-indol-3-yl]pyrimidine-2,4-diamine]	2000 to 10000 nM
Cc1cccc(-c2cc(N[C@@H]3CN4CCC3CC4)nc(N)n2)c1C [Example 281, 4-N-[(3S)-1-azabicyclo[2.2.2]octan-3-yl]-6-(2,3-dimethylphenyl)pyrimidine-2,4-diamine]	2000 to 10000 nM
Nc1nc(NC2CCOCC2)cc(-c2ccc(Cl)cc2)n1 [Example 15, 6-(4-chlorophenyl)-4-N-(oxan-4-yl)pyrimidine-2,4-diamine]	2000 to 10000 nM
Cc1cccc(-c2cc(NC3CCN(C(=O)OC(C)(C)C)CC3)nc(N)n2)c1C [Example 237, tert-Butyl 4-((2-amino-6-(2,3-dimethylphenyl)pyrimidin-4-yl)amino)piperidine-1-carboxylate]	2000 to 10000 nM
Nc1nc(NCCN2CCOCC2)cc(-c2ccccc2)n1 [Example 12, 4-N-[2-(morpholin-4-yl)ethyl]-6-phenylpyrimidine-2,4-diamine]	2000 to 10000 nM
C[C@@H]1[C@H]2C[C@@H](C[C@H]1Nc1cc(-c3cccc(Cl)c3Cl)nc(N)n1)C2(C)C [Example 299, 6-(2,3-dichlorophenyl)-4-N-[(1R,2R,3R,5S)-2,6,6-trimethylbicyclo[3.1.1]heptan-3-yl]pyrimidine-2,4-diamine]	2000 to 10000 nM
CC(C)(C)CNc1cc(-c2cccc(Cl)c2Cl)nc(N)n1 [Example 180, 6-(2,3-dichlorophenyl)-4-N-(2,2-dimethylpropyl)pyrimidine-2,4-diamine]	2000 to 10000 nM
Cc1ccc(S(=O)(=O)N2CCOCC2)cc1-c1cc(NCCCN2CCCC2=O)nc(N)n1 [Example 289, 1-[3-({2-amino-6-[2-methyl-5-(morpholine-4-sulfonyl)phenyl]pyrimidin-4-yl}amino)propyl]pyrrolidin-2-one]	2000 to 10000 nM
Cc1ccc(S(=O)(=O)n2cc(-c3cc(N[C@H](C)C4CC4)nc(N)n3)c3ccccc32)cc1 [Example 167, 4-N-[(1R)-1-cyclopropylethyl]-6-[1-(4-methylbenzenesulfonyl)-1H-indol-3-yl]pyrimidine-2,4-diamine]	2000 to 10000 nM

Same assay, conditions: MTH1 4.8 nM, dGTP 100 μM, 15 minutes at 22° C.; group: less than 200 nM

Structure (SMILES)	IC50
Nc1nc(NCCc2ccc(Cl)cc2)cc(-c2cccc3[nH]ccc23)n1 [Example 231, 4-N-[2-(4-chlorophenyl)ethyl]-6-(1H-indol-4-yl)pyrimidine-2,4-diamine]	< 200 nM
CNc1cc(-c2cc(Cl)c(OC)cc2Cl)nc(N)n1 [Example 192, 6-(2,5-dichloro-4-methoxyphenyl)-4-N-methylpyrimidine-2,4-diamine]	< 200 nM
Cc1cccc(-c2cc(NCC3CCCN3C(=O)OC(C)(C)C)nc(N)n2)c1C (centres unmarked) [Example 282, tert-butyl 2-({[2-amino-6-(2,3-dimethylphenyl)pyrimidin-4-yl]amino}methyl)-pyrrolidine-1-carboxylate]	< 200 nM
Cc1cccc(-c2cc(NCCCNS(=O)(=O)c3ccccc3)nc(N)n2)c1C [Example 376, N-(3-{[2-Amino-6-(2,3-dimethylphenyl)pyrimidin-4-yl]amino}propyl)benzenesulfonamide]	< 200 nM
CNc1cc(-c2ccc(S(C)(=O)=O)cc2)nc(N)n1 [Example 43, 6-(4-methanesulfonylphenyl)-4-N-methylpyrimidine-2,4-diamine]	< 200 nM
Cc1cccc(-c2cc(NCCNc3ccc(C#N)cn3)nc(N)n2)c1C [Example 397, 6-[(2-{[2-Amino-6-(2,3-dimethylphenyl)pyrimidin-4-yl]amino}ethyl)amino]pyridine-3-carbonitrile]	< 200 nM
Cc1cccc(-c2cc(NCCCc3nc4ccccc4[nH]3)nc(N)n2)c1C [Example 409, 4-N-[3-(1H-1,3-benzodiazol-2-yl)propyl]-6-(2,3-dimethylphenyl)pyrimidine-2,4-diamine]	< 200 nM
CNc1cc(-c2ccc(OC)c(Cl)c2Cl)nc(N)n1 [Example 98, 6-(2,3-dichloro-4-methoxyphenyl)-4-N-methylpyrimidine-2,4-diamine]	< 200 nM
CNc1cc(-c2ccncc2Cl)nc(N)n1 [Example 149, 6-(3-chloropyridin-4-yl)-4-N-methylpyrimidine-2,4-diamine]	< 200 nM
Nc1nc(NC23CC4CC(CC2C4)C3)cc(-c2cccc(Cl)c2Cl)n1 [Example 304, 6-(2,3-Dichlorophenyl)-4-N-{tricyclo[3.3.1.0^3,7]nonan-3-yl}pyrimidine-2,4-diamine]	< 200 nM
CNc1cc(-c2cccc(F)c2F)nc(N)n1 [Example 93, 6-(2,3-difluorophenyl)-4-N-methylpyrimidine-2,4-diamine]	< 200 nM
Nc1nc(NCCc2ccc(Cl)cc2)cc(-c2cccc3ncccc23)n1 [Example 266, 4-N-[2-(4-chlorophenyl)ethyl]-6-(quinolin-5-yl)pyrimidine-2,4-diamine]	< 200 nM
Nc1nc(NCCc2ccc(O)cc2)cc(-c2cccc(Cl)c2Cl)n1 [Example 301, 4-(2-{[2-Amino-6-(2,3-dichlorophenyl)pyrimidin-4-yl]amino}ethyl)phenol]	< 200 nM
CNc1cc(-c2cccc(C#N)c2)nc(N)n1 [Example 40, 3-[2-amino-6-(methylamino)pyrimidin-4-yl]benzonitrile]	< 200 nM
Nc1nc(NC2CCOC2)cc(-c2cccc(Cl)c2Cl)n1 (centres unmarked) [Example 67, 6-(2,3-dichlorophenyl)-4-N-(oxolan-3-yl)pyrimidine-2,4-diamine]	< 200 nM
Cc1cccc(-c2cc(NCCc3ccncc3)nc(N)n2)c1C [Example 334, 6-(2,3-Dimethylphenyl)-4-N-[2-(pyridin-4-yl)ethyl]pyrimidine-2,4-diamine]	< 200 nM
Cc1cccc(-c2cc(NCc3cnc(-c4ccccc4)s3)nc(N)n2)c1C [Example 411, 6-(2,3-dimethylphenyl)-4-N-[(2-phenyl-1,3-thiazol-5-yl)methyl]pyrimidine-2,4-diamine]	< 200 nM
Cc1ccc(S(=O)(=O)n2cc(-c3cc(NCC4CC4)nc(N)n3)c3ccccc32)cc1 [Example 165, 4-N-(cyclopropylmethyl)-6-[1-(4-methylbenzenesulfonyl)-1H-indol-3-yl]pyrimidine-2,4-diamine]	< 200 nM
Cc1cccc(-c2cc(NCCCNS(=O)(=O)c3ccc(S(N)(=O)=O)cc3)nc(N)n2)c1C [Example 444, 1-N-(3-{[2-amino-6-(2,3-dimethylphenyl)pyrimidin-4-yl]amino}propyl)benzene-1,4-disulfonamide]	< 200 nM
Nc1nc(NCC2CC2)cc(-c2ccccc2)n1 [Example 6, 4-N-(cyclopropylmethyl)-6-phenylpyrimidine-2,4-diamine]	< 200 nM
Cc1cccc(-c2cc(NCc3ccc(S(N)(=O)=O)cc3)nc(N)n2)c1C [Example 336, 4-({[2-Amino-6-(2,3-dimethylphenyl)pyrimidin-4-yl]amino}methyl)benzene-1-sulfonamide]	< 200 nM

Now from value to compound:

IC50	Structure (SMILES)
< 200 nM	COc1ccc(-c2cc(NC3CCCC3)nc(N)n2)cc1 [Example 56, 4-N-cyclopentyl-6-(4-methoxyphenyl)pyrimidine-2,4-diamine]
< 200 nM	Cc1cccc(-c2cc(NCCNc3ccc(S(N)(=O)=O)cn3)nc(N)n2)c1C [Example 443, 6-[(2-{[2-amino-6-(2,3-dimethylphenyl)pyrimidin-4-yl]amino}ethyl)amino]pyridine-3-sulfonamide]
< 200 nM	Cc1ncsc1CCNc1cc(-c2cccc(Cl)c2C)nc(N)n1 [Example 406, 6-(3-chloro-2-methylphenyl)-4-N-[2-(4-methyl-1,3-thiazol-5-yl)ethyl]pyrimidine-2,4-diamine]
< 200 nM	C=CCNc1cc(-c2cccc(C)c2C)nc(N)n1 [Example 379, 6-(2,3-Dimethylphenyl)-4-N-(prop-2-en-1-yl)pyrimidine-2,4-diamine]
< 200 nM	Cc1c(F)ccc(-c2cc(NC3CC3)nc(N)n2)c1C [Example 436, 4-N-cyclopropyl-6-(4-fluoro-2,3-dimethylphenyl)pyrimidine-2,4-diamine]
< 200 nM	Nc1nc(NC2CCCC2)cc(-c2ccc(Cl)cc2)n1 [Example 55, 6-(4-chlorophenyl)-4-N-cyclopentylpyrimidine-2,4-diamine]
< 200 nM	CNc1cc(-c2cc(F)ccc2C)nc(N)n1 [Example 202, 6-(5-fluoro-2-methylphenyl)-4-N-methylpyrimidine-2,4-diamine]
< 200 nM	Cc1cccc(-c2cc(NCCc3ccc(S(N)(=O)=O)cc3)nc(N)n2)c1C [Example 330, 4-(2-{[2-Amino-6-(2,3-dimethylphenyl)pyrimidin-4-yl]amino}ethyl)benzene-1-sulfonamide]
< 200 nM	CN(C)S(=O)(=O)c1ccc(CCNc2cc(-c3cccc(Cl)c3Cl)nc(N)n2)cc1 [Example 415, 4-(2-{[2-amino-6-(2,3-dichlorophenyl)pyrimidin-4-yl]amino}ethyl)-N,N-dimethylbenzene-1-sulfonamide]
< 200 nM	CNc1cc(-c2cc(F)c(C)cc2Cl)nc(N)n1 [Example 213, 6-(2-chloro-5-fluoro-4-methylphenyl)-4-N-methylpyrimidine-2,4-diamine]
< 200 nM	CNc1cc(-c2cncc3ccccc23)nc(N)n1 [Example 35, 6-(isoquinolin-4-yl)-4-N-methylpyrimidine-2,4-diamine]
< 200 nM	CNc1cc(-c2ccc(O)c(Cl)c2Cl)nc(N)n1 [Example 105, 4-[2-amino-6-(methylamino)pyrimidin-4-yl]-2,3-dichlorophenol]
< 200 nM	Nc1nc(NC2CC2)cc(-c2ccc(Cl)c(Cl)c2Cl)n1 [Example 418, 4-N-Cyclopropyl-6-(2,3,4-trichlorophenyl)pyrimidine-2,4-diamine]
< 200 nM	CNc1cc(-c2cc(C(C)C)ccc2OC)nc(N)n1 [Example 198, 6-[2-methoxy-5-(propan-2-yl)phenyl]-4-N-methylpyrimidine-2,4-diamine]
